US12435023B2, “Crystal form of Treprostinil sodium salt and preparation method therefor” (Shanghai Forefront Pharmaceutical Co., Ltd, priority 2019, dated 2025)
Structures can show the parent of a compound that is named as a salt.

Tests used:
[1] = 60% relative humidity, according to WO2016055819; cited from earlier work
[2] = Water solubility at 25±2° C., dissolution observed within 30 minutes; conditions: for solubility at 30 min: 25 °C, thermodynamic from solid; for Dissolution observed in water: 25±2° C., within 30 minutes, free acid 20 mg in 200 mL, salt forms about 100 mg in 1 mL
Experimental: 20 mg of Treprostinil free acid was weighed and added into a volumetric flask, 200 mL of water was added, and placed in a water bath pot (temperature was controlled at 25±2° C.), shook strongly for 30 seconds every 5 minutes, and the dissolution within 30 minutes was observed.

[3] = Hygroscopicity by dynamic vapor sorption (DVS); type: physicochemical; conditions: for Water content: DVS
Text: Hygroscopicity is one of the key physicochemical properties of drugs and has a significant impact on drug stability, powderological properties and subsequent processing procedure.

[4] = Accelerated stability at 40±2° C. and 75±5% relative humidity for 6 months; conditions: 75±5% RH
Experimental: The purity of samples after stability test was determined by HPLC, the water content of samples after stability test was determined by Karl Fischer titration, and the crystal form of samples after stability test was determined by XRPD.

[5] = Hygroscopicity on storage at 25 degrees and 80% relative humidity for 24 hours; type: physicochemical; conditions: 25 degrees

CCCCC[C@H](O)CC[C@@H]1[C@H]2Cc3cccc(OCC(=O)O)c3C[C@H]2C[C@H]1O [Form A, Treprostinil sodium salt]
Crystal form conversion [1]: converted into Form C

CCCCC[C@H](O)CC[C@@H]1[C@H]2Cc3cccc(OCC(=O)O)c3C[C@H]2C[C@H]1O [Treprostinil free acid, Treprostinil]
solubility at 30 min [2]: < 0.1 mg/mL | Dissolution observed in water [2]: insoluble

CCCCC[C@H](O)CC[C@@H]1[C@H]2Cc3cccc(OCC(=O)[O-])c3C[C@H]2C[C@H]1O.[Na+] [Treprostinil sodium salt]
Water content ([3]; 40.0 RH % / 25° C.): 18.6 wt % | Water content ([3]; 45.0 RH % / 25° C.): 18.7 wt % | Water content ([3]; 50.0 RH % / 25° C.): 18.7 wt % | Water content ([3]; 55.0 RH % / 25° C.): 18.8 wt % | Water content ([3]; 60.0 RH % / 25° C.): 18.8 wt % | Water content ([3]; 65.0 RH % / 25° C.): 18.9 wt % | Water content ([3]; 70.0 RH % / 25° C.): 18.9 wt % | Water content ([3]; 75.0 RH % / 25° C.): 19.0 wt % | Water content ([3]; 80.0 RH % / 25° C.): 19.7 wt % | Water content ([3]; 85.0 RH % / 25° C.): 19.9 wt % | Water content ([3]; 90.0 RH % / 25° C.): 20.5 wt % | Water content ([3]; 95.0 RH % / 25° C.): 22.6 wt % | Hygroscopicity according to the definition in European Pharmacopoeia ([3]; relative humidity 40% to 80%): slight hygroscopicity | Increasing value of the water content, i.e., hygroscopicity ([3]; relative humidity increased from 40% to 80%): 1.1 wt % | Appearance ([4]; 0 day): Off-white | Purity (HPLC) after stability test ([4]; 0 day): 99.97% | Water (Karl Fischer) after stability test ([4]; 0 day): 20.1% | Appearance ([4]; 1 month): Off-White | Purity (HPLC) after stability test ([4]; 1 month): 99.97% | Water (Karl Fischer) after stability test ([4]; 1 month): 20.4% | Appearance ([4]; 3 months): Off-white | Purity (HPLC) after stability test ([4]; 3 months): 99.96% | Water (Karl Fischer) after stability test ([4]; 3 months): 20.0% | Appearance ([4]; 6 months): Off-white | Chemical stability and solid-state stability ([4]; 6 months): excellent chemical stability and solid-state stability | Purity (HPLC) after stability test ([4]; 6 months): 99.98% | Water (Karl Fischer) after stability test ([4]; 6 months): 20.2% | solubility at 30 min [2]: > 100 mg/mL | Dissolution observed in water [2]: completely dissolved | Behaviour of the solid on humid storage [5]: deliquesced into a viscous solution | Hygroscopicity [5]: extremely hygroscopic
